# “And” between values parts separate entries of the source, which are not always exact repeats. Equal values may be shown once.
# Columns and labels:
# A375 melanoma cells = assay: AlamarBlue assay, A375; format: cell-based, human; details: for Cellular activity in melanoma cells (A375), alamarBlue: Fig.1g, replicates
# Method: 3. AlamarBlue assay. AlamarBlue was made by resazurin sodium salt (Sigma, Cat
# # 199303) dissolved in PBS.
# NCI-H211, MDA-MB231 and A375 cells were plated in 96-well plates at approximately 30% confluence and left overnight to adhere. In the following day, […]
# of treatment, 10 μl AlamarBlue reagent (0.3 mg/ml) was added to each well, and after 18h, the florescence intensity in each well was measured using a top-reading fluorescent plate reader with excitation at 530 nm and emission at 590 nm. […]
# [1] = Equilibrium dialysis assay, human plasma
# Method: The concentration was calculated using the peak area ratio of analyte and internal […]
# The results were calculated by the following equations:
# % Unbound = 100 *FC / TC, % Bound = 100 * (1-FC / TC)
# % Recovery = 100 * (FC + TC) / T0
# TC = Total compound concentration as determined by the calculated concentration on the retentate side of the membrane
# FC = Free compound concentration as determined by the calculated concentration on the dialysate side of the membrane […]
# Equation of first order kinetics: […]
# 8. Equilibrium dialysis assay. Binding with plasma protein and recovery rate of NHWD-870 were performed with human, CD-1 mouse and SD rat plasma as […]
# described 2. […] The concentration was […]
# calculated using the peak area ratio of analyte and internal standard. The results were calculated by the following equations: % Unbound = 100 *FC / TC, % Bound = 100 * (1-FC / TC); % Recovery = 100 * (FC + TC) / T0; TC = Total compound concentration as determined by the calculated concentration on the retentate side of the membrane; FC = Free compound concentration as determined by the (1 picture or pasted object on this page, not shown here) […]
# calculated concentration on the dialysate side of the membrane; T0 = To t a l compound concentration as determined before dialysis. […]
# 10. hERG channel assay. […]
# HEK293 cell line stably
# [2] = In vivo pharmacokinetics study, mouse; details: for Plasma concentration: individual mice
# Method: 4–6 weeks old female BALB/c nude mice were used for most experiments, with the exception of 6–8 weeks old female C57BL/6 mice were used for B16F10 experiments, and 6–8 weeks old male BALB/c nude mice and SD rats were used for pharmacokinetic experiments. All animals were purchased from Shanghai SIPPR-Bk Lab Animal Co., Ltd. All animals were housed under a regimen of 12 h light/12 h dark cycles and specific pathogen-free conditions. 5×10^6 NCI-H526, ES-2, MDA-MB231, A2780, A375, B16F10, and TMD-8 cells (0.1 ml) were injected subcutaneously into female nude mice. The melanoma patient-derived xenograft model was derived from a human melanoma sample (BRAF, NARS and NF1 wild type, and p53 mutant) removed from a patient in Xiangya Hospital. Surgically removed tumor fragments were implanted subcutaneously into female NSG mice. When the tumors grew to ~1000 mm^3, they were harvested and cryopreserved or immediately re-implanted for expansion or experiments. Mouse body weight and tumor sizes were measured every 3 days. Once the tumors grew to 150–200 mm^3, mice were treated with the compounds as described in the Figures. 1 × 10^6 A2780 cells (1 ml) were injected into the abdominal cavity of nude mice. Ascitic volume and tumor weight were measured by an electronic balance. All the procedures were evaluated and approved by the Institutional Animal Care and Use Committee of Central South University and Yale University.
# Supplementary Figure 7. Pharmacokinetic profile of NHWD-870 using mouse and rat models.
# (a,b) Plasma concentrations of NHWD-870 in healthy (a) mouse and (b) rat after intravenous (IV, 1.75 mg/kg for mouse and 1 mg/kg for rat) and oral (PO, 5 mg/kg) administration. Values shown on the right panels are mean ± SEM from 3 different animals. (c,d) Mean concentrations of NHWD-870 in the lungs (c) and tumors (d) of H526 xenograft model at the indicated hours after oral administration of 3 mg/kg NHWD-870 and BMS-98615821 on day 21. These mice were administrated the indicated drug daily for 21 days. Data are represented as mean ± SEM of 3 independent experiments. Source data are provided as a Source Data file. […]
# 9. In vivo pharmacokinetics study. Mouse and SD rat models were used to evaluate pharmacokinetic property of NHWD-870. NHWD-870 was administrated […]
# Concentration of drugs in plasma, lung and tumor tissues were measured for the indicated time. […]
# [3] = male, BALB/c nude, plasma, IV 1.75 mg/kg
structure (smiles),measurement,setting,value
Cc1nnn(C)c1-c1cnc2c3c4cnn(C)c4ccc3n([C@H](c3ccccc3)C3CCOCC3)c2c1 [NHWD-870],fold more potent than GSK-525762 or OTX015,A375 melanoma cells; A375 cells,about 14 fold
same,fold more potent than I-BET151,A375 melanoma cells; A375 cells,about 23 fold
same,"Cellular activity in melanoma cells (A375), alamarBlue",A375 melanoma cells; concentration(nM) 0.21442,0.8628 and 1.0579
same,"Cellular activity in melanoma cells (A375), alamarBlue",A375 melanoma cells; concentration(nM) 0.31236,16.3424 and 12.5613
same,"Cellular activity in melanoma cells (A375), alamarBlue",A375 melanoma cells; concentration(nM) 0.4103,30.3045 and 25.7042
same,"Cellular activity in melanoma cells (A375), alamarBlue",A375 melanoma cells; concentration(nM) 0.6032,65.3038 and 63.4524
same,"Cellular activity in melanoma cells (A375), alamarBlue",A375 melanoma cells; concentration(nM) 1.2043,75.3216 and 83.4358
same,"Cellular activity in melanoma cells (A375), alamarBlue",A375 melanoma cells; concentration(nM) 1.8024,92.8346 and 91.942
same,"Cellular activity in melanoma cells (A375), alamarBlue",A375 melanoma cells; concentration(nM) 2.4,100.774 and 99.5602
same,"Cellular activity in melanoma cells (A375), alamarBlue",A375 melanoma cells; concentration(nM) 3,101.341 and 101.79
same,IC50,"A375 melanoma cells; Homo sapiens, A-375, nM printed in b8, the picture prints no unit, read-out: IC50, cellular activity in A375 (alamarBlue)",2.46 nM
same,% Bound,"[1]; Human plasma, equilibrium dialysis",97.5%
same,fraction unbound,"[1]; human, plasma",0.025
same,recovery,"[1]; human, plasma",92.8%
same,AUCExtrap,[2]; IV 1.75 mg/kg,3.87±2.125%
same,T1/2,"[2]; IV 1.75 mg/kg, 1.75 mg/kg",1.7 h
same,Plasma concentration,"[2]; IV 1.75 mg/kg, 5 min, 1.75 mg/kg",547 ng/mL and 518 ng/mL
same,Plasma concentration,"[2]; IV 1.75 mg/kg, 0.25 h, 1.75 mg/kg",431 ng/mL and 362 ng/mL
same,Plasma concentration,"[2]; IV 1.75 mg/kg, 0.5 h, 1.75 mg/kg",399 ng/mL and 272 ng/mL
same,Plasma concentration,"[2]; IV 1.75 mg/kg, 1 h, 1.75 mg/kg",295 ng/mL and 262 ng/mL
same,Plasma concentration,"[2]; IV 1.75 mg/kg, 2 h, 1.75 mg/kg",281 ng/mL and 264 ng/mL
same,Plasma concentration,"[2]; IV 1.75 mg/kg, 4 h, 1.75 mg/kg",215 ng/mL and 197 ng/mL
same,Plasma concentration,"[2]; IV 1.75 mg/kg, 8 h, 1.75 mg/kg",41.2 ng/mL and 70.8 ng/mL
same,Plasma concentration,"[2]; IV 1.75 mg/kg, 24 h, 1.75 mg/kg",0.876 ng/mL and 1.36 ng/mL
same,AUCExtrap,[2]; PO 5 mg/kg,3.04±0.685%
same,"F (%), oral bioavailability","[2]; PO 5 mg/kg, 5 mg/kg",70%
same,Plasma concentration,"[2]; PO 5 mg/kg, 0.25 h, 5 mg/kg",515 ng/mL and 150 ng/mL and 133 ng/mL
same,Plasma concentration,"[2]; PO 5 mg/kg, 0.5 h, 5 mg/kg",630 ng/mL and 247 ng/mL and 269 ng/mL
same,Plasma concentration,"[2]; PO 5 mg/kg, 1 h, 5 mg/kg",688 ng/mL and 321 ng/mL and 337 ng/mL
same,Plasma concentration,"[2]; PO 5 mg/kg, 2 h, 5 mg/kg",593 ng/mL and 414 ng/mL
same,Plasma concentration,"[2]; PO 5 mg/kg, 4 h, 5 mg/kg",308 ng/mL and 354 ng/mL
same,Plasma concentration,"[2]; PO 5 mg/kg, 6 h, 5 mg/kg",62.6 ng/mL and 255 ng/mL and 189 ng/mL
same,Plasma concentration,"[2]; PO 5 mg/kg, 8 h, 5 mg/kg",37.2 ng/mL and 209 ng/mL and 111 ng/mL
same,Plasma concentration,"[2]; PO 5 mg/kg, 24 h, 5 mg/kg",0.953 ng/mL
same,AUC(0-inf),[2]; [3],993 ± 280 ng·h/mL
same,AUC(0-t),[2]; [3],939 ± 242 ng·h/mL
same,C0,[2]; [3],630 ± 70.5 ng/mL
same,MRT inf,[2]; [3],2.22 ± 0.42 h

# Source: PMC7156724, “Potent BRD4 inhibitor suppresses cancer cell-macrophage interaction” (Nature Communications, 2020)
